We go through 2 compounds from patent US20240002430A1, “METHOD FOR PRODUCING PROTEIN COMPOSITIONS” (HOFFMAN-LA ROCHE INC., priority 2020, published 2024).

Each structure is given as a SMILES string.

The conditions of data set [1]: general statement in the description, no test described; cited from earlier work.
For another data set, the target named is T1, lipase CalB2 (Moesziomyces antarcticus, UniProt P41365).
T1 sequence (P41365 26-342): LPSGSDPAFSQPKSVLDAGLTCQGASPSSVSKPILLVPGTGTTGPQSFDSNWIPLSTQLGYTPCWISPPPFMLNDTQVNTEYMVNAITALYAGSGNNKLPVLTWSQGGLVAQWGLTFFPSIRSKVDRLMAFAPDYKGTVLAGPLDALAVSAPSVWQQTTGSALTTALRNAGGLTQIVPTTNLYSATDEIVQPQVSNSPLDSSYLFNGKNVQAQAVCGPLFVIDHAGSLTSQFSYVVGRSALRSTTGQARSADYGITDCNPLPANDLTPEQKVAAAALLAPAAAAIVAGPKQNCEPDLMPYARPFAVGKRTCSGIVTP
Briefly: Targeted LC-MS proteomics of lipase bound to bis-enol-ester functionalized magnetic beads. Format: binding. As to conditions: compound C coupled to azide modified polystyrene magnetic beads; CalB2 + Herceptin mixture, over night 40° C.; after extensive washing; vs non-functionalized beads. On the procedure:
Test sample: Herceptin (mAb; 0.2 μg/μl in Na-Phosphate-Buffer) as control protein for the LC-MS based proteomics workflow was mixed with the lipase CalB2 (CalB2; […] in Na-Phosphate-Buffer) in a ca. 1:1 (mol/mol) ratio) as target. The above-mentioned samples were addressed with compound C (bis-enol-ester) covalently coupled to 60 μg azide modified magnetic particles (60 μl of a […] aqueous solution were prepared) (Polystyrene based azide beads; CLK-1036-1, Jena-Bioscience) which were made by click reaction and purification (see protocol experiment Example 1 and general procedure described for the Jena-Bioscience click protocol). […]
The targeted LC-MS analysis was performed using Water/Acetonitrile gradients with TFA (0.05% v(v) as buffer. The separation column was a PepSwift Monolithic Capillary Column, 200 μm×5 cm, P/N: 161409. As mass spectrometer, a Thermo LTQ FT system was used. Further experimental design for quantitative analyses followed general experimental targeted LC-MS procedures. The proteins bound to the beads were applied to the LC-MS system by injection of 1 μl of the digested sample on the analytical column. […]

In the case of `CCCCCCCCCCC[C@@H](C[C@@H]1OC(=O)[C@H]1CCCCCC)OC(=O)[C@H](CC(C)C)NC=O` [Orlistat], in data set [1], the solubility in water entry is “highly insoluble in water”.
On to `C#CCCCC(=C/OC(=O)CCCCCCCCCCC)/C=C/OC(=O)CCCCCCCCCCC` [bis-enol ester], for which the “binding of model lipase CalB2 to functionalized beads (LC-MS peptide peak intensities, FIG. 6)” value at lipase CalB2 was “binds to beads functionalized with bis-enol ester even when subjected to extensive washing steps”.
